Values quoted from earlier work, collected in patent EP0983068B1, “THE USE OF 1,2,4-TRIAZOLO 1,5-c]PYRIMIDINE HETEROCYCLIC ANALOGUES FOR THE PREPARATION OF MEDICAMENTS USEFUL FOR THE TREATMENT OF CEREBROVASCULAR DISTURBANCES” (SCHERING-PLOUGH S.p.A., priority 1997, dated 1998).

Test system: cerebral ischemia
Conditions: Life Sciences, 55, 61-65, 1994; Brain Research 705, 79-84, 1995

CP66713
effect in cerebral ischemia animal models: act favourably
